These results are taken from patent US11667631B2, “FGFR4 inhibitor, preparation method therefor, and applications thereof” (Jiangsu Hansoh Pharmaceutical Group Co., Ltd., priority 2016, dated 2023).

The test system of one series is SK-HEP-1 cells. The series is described as follows: Inhibition of SK-HEP-1 cell proliferation (CellTiter-Glo). In kind it is cell-based. The note with it: read-out: SK-HEP-1 IC50. Here is the method:
In this experiment, the inhibitory effect of the compounds on SK-HEP-1 cell proliferation was tested by a CellTiter-Glo method, and the half maximal inhibitory concentration (IC50) of the compounds on the activity of cell proliferation was determined.
1) A 96-well cell culture plate was seeded with 50˜100 μL of SK-HEP-1 cell suspension at a density of 1˜5×10^4 cells/ml. The culture plate was incubated in an incubator for 16˜24 hours (37° C., 5% CO2).
(§1) 2) Different concentrations of the test compound in a gradient dilution were added to the cells in the culture plate. The culture plate was incubated in an incubator for 72 hours (37° C., 5% CO2).
(§2) 3) 50˜100 μL of CellTiter-Glo reagent were added to each well. Then, the culture plate was shaken or left to stand for 5˜30 minutes at room temperature.
(§3) 4) The chemiluminescence signal values of each plate were determined by a microplate reader.
(§4) 5) The inhibition rates were calculated according to the chemiluminescence signal values.
(§5) 6) The IC50 of the compound was obtained by curve fitting according to the inhibition rates at different concentrations, and the cell activity of the specific example compounds is shown in Table 2.
(Cellular ATP, detected with luciferase, serves as a proxy for viable cell number.)

Another series has as its system HuH-7 cells. The series is described as follows: Inhibition of HuH-7 cell proliferation (CellTiter-Glo). It counts as cell-based. The note with it: Homo sapiens, Huh-7, 72 h, read-out: HuH-7 IC50. On the procedure:
In this experiment, the inhibitory effect of the compounds on HuH-7 cell proliferation was tested by a CellTiter-Glo method, and the half maximal inhibitory concentration (IC50) of the compounds on the activity of cell proliferation was determined.
1) A 96-well cell culture plate was seeded with 50˜100 μL of HuH-7 cell suspension at a density of 1˜5×10^4 cells/ml. The culture plate was incubated in an incubator for 16˜24 hours (37° C., 5% CO2).
as §1
3) 50˜100 μL of CellTiter-Glo reagent was added to each well. Then, the culture plate was shaken or left to stand for 5˜30 minutes at room temperature.
as §3, §4, §5

Series [1] in a line: Pharmacokinetic (PK) analysis in rats. It counts as in vivo, Sprague Dawley (SD) rats. The note with it: SD rats, single intragastric administration, 5 mg/kg; for Peak Time tmax: (sampling in hours); for AUC(0-t) / AUC(0-inf) / half-life / MRT / Cmax: Sprague-Dawley, rat, plasma, po; for AUC(0-t): read-out: Area Under Curve AUC0-t; for AUC(0-inf): read-out: Area Under Curve AUC0-∞; for half-life: read-out: Half-Time t1/2 (converted); for MRT: read-out: Mean Residence Time MRT; for Cmax: read-out: Plasma Concentration Cmax. On the procedure:
1) 0.2 ml of intravenous blood was collected and placed in a K2EDTA test tube. The blood was centrifuged at room temperature at the speed of 1000˜3000×g for 5˜20 minutes to isolate the plasma, which was then stored at −80° C.
2) 160 μL of acetonitrile was added to 40 μL of plasma sample for precipitation, and then the mixture was centrifuged at the speed of 500˜2000×g for 5˜20 minutes.
3) 100 μL of treated solution was taken, and the concentration of the test compound was analyzed by LC/MS/MS. The LC/MS/MS analytical instrument was AB Sciex API 4000. • Liquid chromatography analysis: • Condition of Liquid chromatography: Shimadzu LC-20AD pump • Chromatographic column: phenomenex Gemiu 5 um C18 50×4.6 mm • Mobile phase: Solution A is 0.1% formic acid aqueous solution, and Solution B is acetonitrile • Flow rate: 0.8 mL/min • Elution time: 0-3.5 minutes, the eluent was used as follows: […]

The next series relates to Hep 3B cells. The series is described as follows: Inhibition of Hep 3B cell proliferation (CellTiter-Glo). It counts as cell-based. On the procedure: In this experiment, the inhibitory effect of the compounds on Hep 3B cell proliferation was tested by a CellTiter-Glo method, and the half maximal inhibitory concentration (IC50) of the compounds on the activity of cell proliferation was determined.
1) A 96-well cell culture plate was seeded with 50˜100 μL of Hep 3B cell suspension at a density of 1˜5×10^4 cells/ml. The culture plate was incubated in an incubator for 16˜24 hours (37° C., 5% CO2).
as §1, §2, §3, §4

In another series the target is FGFR1 kinase (Homo sapiens (Human), UniProt P11362). Nature of the series: Enzymologic experiment of FGFR1 (TR-FRET). It counts as biochemical. The note with it: FGFR1 kinase activity. Here is the method: In this experiment, the inhibitory effect of the compounds on FGFR1 kinase activity was tested by a fluorescence resonance energy transfer (TR-FRET) method, and the half maximal inhibitory concentration (IC50) of the compounds on the FGFR1 kinase activity was determined.
Chain of FGFR1 kinase (P11362 22-822): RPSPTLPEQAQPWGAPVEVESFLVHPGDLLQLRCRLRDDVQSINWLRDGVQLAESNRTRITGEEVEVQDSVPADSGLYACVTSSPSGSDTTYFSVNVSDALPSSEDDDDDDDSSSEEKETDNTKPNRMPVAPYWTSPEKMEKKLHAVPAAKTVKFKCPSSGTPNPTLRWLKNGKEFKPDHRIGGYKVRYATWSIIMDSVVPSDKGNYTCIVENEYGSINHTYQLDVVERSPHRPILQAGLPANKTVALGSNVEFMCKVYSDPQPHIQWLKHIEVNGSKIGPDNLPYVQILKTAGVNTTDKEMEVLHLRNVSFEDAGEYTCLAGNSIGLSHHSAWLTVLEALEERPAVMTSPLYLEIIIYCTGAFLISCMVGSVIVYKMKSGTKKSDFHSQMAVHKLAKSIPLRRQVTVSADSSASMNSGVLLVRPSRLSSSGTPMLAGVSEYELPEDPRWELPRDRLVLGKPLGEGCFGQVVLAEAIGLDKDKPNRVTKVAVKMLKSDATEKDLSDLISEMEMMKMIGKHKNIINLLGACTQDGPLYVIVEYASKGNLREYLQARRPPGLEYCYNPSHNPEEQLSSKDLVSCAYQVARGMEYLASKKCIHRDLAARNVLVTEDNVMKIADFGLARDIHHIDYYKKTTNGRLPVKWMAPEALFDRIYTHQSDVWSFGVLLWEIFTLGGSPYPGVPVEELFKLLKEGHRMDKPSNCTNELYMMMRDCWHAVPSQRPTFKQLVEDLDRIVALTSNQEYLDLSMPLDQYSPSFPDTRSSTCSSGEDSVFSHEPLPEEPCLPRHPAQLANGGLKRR
1) 1˜5 μL of FGFR1 enzyme solution was added to a 384-well plate, and the final concentration of the enzyme was 0.1˜5 nM.
2) 1˜5 μL of diluted solution in gradient of the compound was added.
3) 1˜5 μL of a substrate mixture containing substrate polypeptide with a final concentration of 5˜50 nM and ATP with a final concentration of 10˜200 μM was added.
4) The mixture was incubated for 0.5˜3 hours at room temperature.
5) 10 μL of EDTA and a test solution comprising labeled antibody were added, and the plate was incubated for 1 hour at room temperature.
6) The fluorescence signal values of each plate were determined by a microplate reader at 665 nm.
7) The inhibition rates were calculated according to the fluorescence signal values.
8) The IC50 of the compound was obtained by curve fitting according to the inhibition rates at different concentrations, and the enzymatic activity of the specific example compounds is shown in Table 1.

Where [2] appears, read: Homo sapiens, Hep3B, 72 h, read-out: Hep 3B IC50, Hep 3B cell proliferation, 72 hours, CellTiter-Glo.

Read-outs that look alike come from different tables or passages of the source.

By MRT is commonly meant the average time that molecules of a dose stay in the body. With `CO[C@@H]1CCCC1Nc1cc(NC(=O)N2CCCc3cc(CN4CCOCC4=O)c(C=O)nc32)ncc1C#N` (stereo partly drawn) [Example 1, N-(5-Cyano-4-(((trans)-2-methoxycyclopentyl)amino)pyridin-2-yl)-7-formyl-6-((3-carbonylmorpholino)methyl)-3,4-dihydro-1,8-naphthyridin-1(2H)-carboxamide], in the series on SK-HEP-1 cells (Homo sapiens, SK-HEP1, 72 h), the IC50 was greater than 10 µM. Also, in the series on HuH-7 cells, the IC50 amounted to 0.003 µM. Further, in series [1], the Peak Time tmax came out at 0.5 h, the AUC(0-t) worked out at 1010 ng·h/mL, the AUC(0-inf) worked out at 5040 ng·h/mL and the half-life was 1.1 h. Further, in series [1], the MRT amounted to 1.1 h and the Cmax turned out to be 1140 ng/mL. Also, the IC50 in the series on Hep 3B cells (setting [2]) stood at 0.0007 µM.

On to `N#Cc1cnc(NC(=O)N2CCCc3cc(CN4CCOCC4=O)c(C=O)nc32)cc1NCCOC1CCCC1` [Example 5, N-(5-Cyano-4-((2-(cyclopentyloxy)ethyl)amino)pyridin-2-yl)-7-formyl-6-((3-carbonylmorpholino)methyl)-3,4-dihydro-1,8-naphthyridin-1(2H)-carboxamide], for which the IC50 is greater than 10 µM in the series with SK-HEP-1 cells (Homo sapiens, SK-HEP1, 72 h); 0.0349 µM in the series with HuH-7 cells; 0.0082 µM in the series with Hep 3B cells (setting [2]); greater than 10 µM at FGFR1 kinase.

For `COC1(CNc2cc(NC(=O)N3CCCc4cc(CN5CCOCC5=O)c(C=O)nc43)ncc2C#N)CC1` [Example 9, N-(5-Cyano-4-(((1-methoxycyclopropyl)methyl)amino)pyridin-2-yl)-7-formyl-6-((3-carbonylmorpholino)methyl)-3,4-dihydro-1,8-naphthyridin-1(2H)-carboxamide], the IC50 was greater than 10 µM with SK-HEP-1 cells (Homo sapiens, SK-HEP1, 72 h); 0.0091 µM with HuH-7 cells; 0.0014 µM in the series with Hep 3B cells (setting [2]); greater than 10 µM against FGFR1 kinase.

For `CO[C@H]1CCCC1Nc1cc(NC(=O)N2CCCc3cc(CN4CCOCC4=O)c(C=O)nc32)ncc1C#N` (stereo partly drawn) [Example 15, N-(5-Cyano-4-(((cis)-2-methoxycyclopentyl)amino)pyridin-2-yl)-7-formyl-6-((3-carbonylmorpholino)methyl)-3,4-dihydro-1,8-naphthyridin-1(2H)-carboxamide], the IC50 with SK-HEP-1 cells (Homo sapiens, SK-HEP1, 72 h) was greater than 10 µM; with HuH-7 cells, 0.0049 µM; with Hep 3B cells (setting [2]) it was 0.003 µM; against FGFR1 kinase, greater than 10 µM.

As for `CO[C@@H]1CCN(c2cc(NC(=O)N3CCCc4cc(CN5CCCCOC5=O)c(C=O)nc43)ncc2C#N)C1` [Example 31, (R)-N-(5-Cyano-4-(3-methoxypyrrolidin-1-yl)pyridin-2-yl)-7-formyl-6-((2-carbonyl-1,3-oxazepin-3-yl)methyl)-3,4-dihydro-1,8-naphthyridin-1(2H)-carboxamide], the IC50 with SK-HEP-1 cells (Homo sapiens, SK-HEP1, 72 h) was greater than 10 µM. Also, the IC50 in the series on HuH-7 cells is 0.0065 µM. In series [1], the Peak Time tmax is 2 h, the AUC(0-t) came out at 1920 ng·h/mL, the AUC(0-inf) came out at 1920 ng·h/mL and the half-life is 1.27 h. In series [1], the MRT stood at 4.54 h and the Cmax amounted to 3720 ng/mL. In addition, the IC50 against FGFR1 kinase is greater than 10 µM.

For `CO[C@H]1CCN(c2cc(NC(=O)N3CCCc4cc(CN5CCCCOC5=O)c(C=O)nc43)ncc2C#N)C1` [Example 32], the IC50 with SK-HEP-1 cells (Homo sapiens, SK-HEP1, 72 h) was greater than 10 µM; with HuH-7 cells, 0.0058 µM; with Hep 3B cells (setting [2]), 0.0031 µM; on FGFR1 kinase, greater than 10 µM.

Turning to `N#Cc1cnc(NC(=O)N2CCCc3cc(CN4CCCCOC4=O)c(C=O)nc32)cc1N[C@H]1CCOC1` [Example 33], the IC50 in the series on SK-HEP-1 cells (Homo sapiens, SK-HEP1, 72 h) was greater than 10 µM; with HuH-7 cells, 0.0072 µM; in the series on Hep 3B cells (setting [2]), 0.0037 µM; at FGFR1 kinase, greater than 10 µM.

As to `N#Cc1cnc(NC(=O)N2CCCc3cc(CN4CCCCOC4=O)c(C=O)nc32)cc1N[C@@H]1CCOC1` [Example 34, (R)-N-(5-Cyano-4-((tetrahydrofuran-3-yl)amino)pyridin-2-yl)-7-formyl-6-((2-carbonyl-1,3-oxazepin-3-yl)methyl)-3,4-dihydro-1,8-naphthyridin-1(2H)-carboxamide], the IC50 with SK-HEP-1 cells (Homo sapiens, SK-HEP1, 72 h) was greater than 10 µM; in the series with HuH-7 cells, 0.0049 µM; in the series with Hep 3B cells (setting [2]), 0.0023 µM; against FGFR1 kinase, greater than 10 µM.

Regarding `COC[C@@H](C)Oc1cc(NC(=O)N2CCCc3cc(CN4CCCCOC4=O)c(C=O)nc32)ncc1C#N` [Example 35], the IC50 in the series with SK-HEP-1 cells (Homo sapiens, SK-HEP1, 72 h) is greater than 10 µM; in the series on HuH-7 cells, 0.0046 µM; with Hep 3B cells (setting [2]), 0.0022 µM; on FGFR1 kinase it was greater than 10 µM.

Consider `CO[C@H]1CCN(c2cc(NC(=O)N3CCCc4cc(CN5C(=O)OC[C@@H]5C)c(C=O)nc43)ncc2C#N)C1` [Example 39, N-(5-Cyano-4-((S)-3-methoxypyrrolidin-1-yl)pyridin-2-yl)-7-formyl-6-(((S)-4-methyl-2-carbonyloxazolidin-3-yl)methyl)-3,4-dihydro-1,8-naphthyridin-1(2H)-carboxamide], for which the IC50 in the series with SK-HEP-1 cells (Homo sapiens, SK-HEP1, 72 h) is greater than 10 µM; in the series with HuH-7 cells it was 0.0346 µM; with Hep 3B cells (setting [2]) it was 0.0393 µM; on FGFR1 kinase, greater than 10 µM.

On to `CO[C@@H]1CCN(c2cc(NC(=O)N3CCCc4cc(CN5CCCOC5=O)c(C=O)nc43)ncc2C#N)C1` [Example 49, (R)-N-(5-Cyano-4-(3-methoxypyrrolidin-1-yl)pyridin-2-yl)-7-formyl-6-((2-carbonyl-1,3-oxazinan-3-yl)methyl)-3,4-dihydro-1,8-naphthyridin-1(2H)-carboxamide], for which the IC50 with SK-HEP-1 cells (Homo sapiens, SK-HEP1, 72 h) was greater than 10 µM; in the series with HuH-7 cells, 0.0113 µM; in the series on Hep 3B cells (setting [2]) it was 0.0044 µM; against FGFR1 kinase it was greater than 10 µM.

As to `COC1CN(c2cc(NC(=O)N3CCCc4cc(CN5CCOCC5=O)c(C=O)nc43)ncc2C#N)C1` [Example 53, N-(5-Cyano-4-(3-methoxyazetidin-1-yl)pyridin-2-yl)-7-formyl-6-((3-carbonylmorpholino)methyl)-3,4-dihydro-1,8-naphthyridin-1(2H)-carboxamide], the IC50 with SK-HEP-1 cells (Homo sapiens, SK-HEP1, 72 h) is greater than 10 µM; in the series with Hep 3B cells (setting [2]), 0.0415 µM; against FGFR1 kinase, greater than 10 µM.

With `CO[C@H]1CCOCC1Oc1cc(NC(=O)N2CCCc3cc(CN4CCOCC4=O)c(C=O)nc32)ncc1C#N` (stereo partly drawn) [Example 69, N-(5-Cyano-4-(((3,4)-trans-3-methoxytetrahydro-2H-pyran-4-yl)oxy)pyridin-2-yl) -7-formyl-6-((3-carbonylmorpholino)methyl)-3,4-dihydro-1,8-naphthyridin-1(2H)-carboxamide], the IC50 in the series with SK-HEP-1 cells (SK-HEP-1 cell proliferation, 72 hours, CellTiter-Glo) is greater than 10 µM; in the series on Hep 3B cells (read-out: Hep 3B IC50, Hep 3B cell proliferation, 72 hours, CellTiter-Glo), 0.0226 µM.
